From publication PMC6572376, “N1-Propargylguanosine Modified mRNA Cap Analogs: Synthesis, Reactivity, and Applications to the Study of Cap-Binding Proteins” (Molecules, 2019)

Molecular target: T1, hDcpS (Homo sapiens, UniProt Q96C86)
T1 construct: made in house
T1 sequence (Q96C86 1-337): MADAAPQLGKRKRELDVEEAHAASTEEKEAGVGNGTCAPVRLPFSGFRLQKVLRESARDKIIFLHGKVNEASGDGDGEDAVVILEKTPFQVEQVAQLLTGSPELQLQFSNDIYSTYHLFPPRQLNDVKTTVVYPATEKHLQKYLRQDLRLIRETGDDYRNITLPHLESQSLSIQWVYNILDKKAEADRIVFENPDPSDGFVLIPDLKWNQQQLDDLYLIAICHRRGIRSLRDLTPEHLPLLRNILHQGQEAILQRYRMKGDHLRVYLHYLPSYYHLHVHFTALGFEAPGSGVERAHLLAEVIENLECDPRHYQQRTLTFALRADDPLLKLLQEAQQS
Test: hDcpS cleavage of fluorescent probes monitored by emission spectroscopy
Format: biochemical
Conditions: 30 nM hDcpS; probe 30 µM / 100 nM (legend, methods)
Method: Fluorescently labeled cap analogs that serve as DcpS substrates can be considered as activity probes. We performed an enzymatic cleavage test with 30 nM hDcpS and 30 µM probe to evaluate whether fluorescently labeled derivatives of cap analog 1 (probes 6–9) can be used to monitor enzymatic activity via changes in fluorescence emission. […] For the Py-labeled probe 9, the fluorescence intensity at the emission maximum increased by 50% after complete DcpS cleavage (Figure 4c and Figure S3). Nevertheless, certain previously developed probes provided higher sensitivity than the one formulated here.
Human DcpS was expressed and purified as described previously. Enzyme was stored at −80 °C at 10 µM concentration (monomer). Enzyme hDcpS was preincubated at 30 °C for 15 min before usage. […] Reaction progress was monitored by recording emission spectra, upon excitation at the wavelength characteristic for a fluorophore studied, using Cary Eclipse (Agilent Technologies, Santa Clara, CA, USA) equipped with a xenon lamp in a quartz cuvette (10 mm × 4 mm).
Figure 4 The influence of complete cleavage by hDcpS (30 nM) on the fluorescence properties of probes 6–9 (100 nM). Emission spectra before (0 min) and after (60 min) decapping scavenger (DcpS) cleavage for compounds 6 (a) and 9 (b); (c) The ratios of fluorescence intensity after and before cleavage (I/I0) for all studied probes.

## C[n+]1cn([C@@H]2O[C@H](COP(=O)(O)OP(=O)([O-])OP(=O)(O)OC[C@H]3O[C@@H](n4cnc5c(=O)n(Cc6cn(CCOCCOCCNC(=O)Cc7ccc8ccc9cccc%10ccc7c8c9%10)nn6)c(N)nc54)[C@H](O)[C@@H]3O)[C@@H](O)[C@H]2O)c2nc(N)nc(O)c21 [Compound 9, m^7Gp3G-N1-Py]
  Increase of fluorescence intensity at the emission maximum after complete DcpS cleavage: 50%
